Measured values reported in patent publication US10251874B2, “Crystalline forms of a JAK inhibitor compound” (THERAVANCE BIOPHARMA R&D IP, LLC, priority 2017, dated 2019).
Like-named read-outs stand apart in the source and are kept apart here.

Details: for sorption/desorption profile (hygroscopicity): DMS, two cycles of sorption and desorption, 25° C.
Protocol: Dynamic moisture sorption (DMS) measurement was performed using a VTI atmospheric microbalance, SGA-100 system (VTI Corp., Hialeah, FL 33016). A weighed sample was used and the humidity was lowest possible value (close to 0% RH) at the start of the analysis. The DMS analysis consisted of an initial drying step (˜0%RH) for 120 minutes, followed by two cycles of sorption and desorption with a scan rate of 5% RH/step over the humidity range of 5% RH to 90% RH. The DMS run was performed isothermally at 25° C.

## CCc1cc(O)c(F)cc1-c1ccc2c(-c3nc4c([nH]3)CCN(C3CCN(C)CC3)C4)n[nH]c2c1.O.O=C(O)C(=O)O [oxalate hydrate, Crystalline Oxalate Hydrate of 5-ethyl-2-fluoro-4-(3-(5-(1-methylpiperidin-4-yl)-4,5,6,7-tetrahydro-1H-imidazo[4,5-c]pyridin-2-yl)-1H-indazol-6-yl)phenol]
  sorption/desorption profile (hygroscopicity): slight propensity for hygroscopicity
Relative humidity between about 30% and about 90% at room temperature
  total moisture uptake: about 1%

## CCc1cc(O)c(F)cc1-c1ccc2c(-c3nc4c([nH]3)CCN(C3CCN(C)CC3)C4)n[nH]c2c1.O.O=C(O)CCC(=O)O [succinate hydrate, Crystalline Succinate Hydrate of 5-ethyl-2-fluoro-4-(3-(5-(1-methylpiperidin-4-yl)-4,5,6,7-tetrahydro-1H-imidazo[4,5-c]pyridin-2-yl)-1H-indazol-6-yl)phenol]
  sorption/desorption profile (hygroscopicity): slight propensity for hygroscopicity
Relative humidity between about 5% and about 90% at room temperature
  total moisture uptake: about 2%
